# Reference: patent US20210155715A1, “USE OF TRYPTOPHAN DERIVATIVES AND L-METHIONINE FOR PROTEIN FORMULATION” (Genentech, Inc., priority 2018, published 2021)
# Columns and labels:
# [1] = biological target: T1, neurokinin-1 (NK-1) receptor (Homo sapiens, UniProt P25103); assay: Binding to the NK-1 receptor in U373MG human astrocytoma cells; conditions: room temperature
# T1 construct: U373MG human astrocytoma cells which endogenously express the receptor; endogenous in cells; host or cells: U373MG human astrocytoma cells
# Procedure: The activity of NAT was assessed in binding, cellular and nuclear receptor functional and tissue bioassays. Binding to the neurokinin-1 (NK-1) receptor was assessed in U373MG human astrocytoma cells which endogenously express the receptor (Eistetter et al. (1992) Functional characterization of Neurokinin-1 receptors on human U373MG astrocytoma cells. Glia 6(2):89-95; Heuillet et al. (1993) J. Neurochem 60(3):868-876), and compared to the reference agonist [Sar^9, Met(O2)^11]-SP or to the reference antagonist L 733,060. NAT or the reference compounds were incubated with U373MG cells at room temperature; all concentrations were assayed in duplicate.
# [2] = AAPH chemical oxidation stress of mAb1/mAb2, LC-MS peptide mapping; format: physicochemical; conditions: 0.3 mM NAT
# Text: Antibodies were subjected to AAPH stress followed by peptide mapping to identify the CDR and Fc residues that were sensitive to oxidation (Dion et al., manuscript in preparation). […] If a residue oxidized by >5% relative to the control, it was deemed sensitive and monitored throughout the course of the experiments. […] In brief, samples were denatured, reduced, carboxylmethylated and subjected to trypsin digestion. Peptides were separated on an Acquity UPLC Peptide CSH C18 column using a water/acetonitrile/formic acid gradient on a Waters Acquity H-Class UHPLC coupled to a Thermo Q Exactive Plus high-resolution mass spectrometer. Data was processed using Thermo Scientific PepFinder™ and Xcalibur™ software. Integration was performed on extracted ion chromatograms of monoisotopic m/z using the most abundant charge state(s) for the native and oxidized peptides. The percent oxidation was calculated by dividing the peak area of the oxidized peptides by the summed peak area of the native and oxidized peptides. The major tryptophan degradation products (+16 and +32, in addition to +4, +20, and +48 for highly oxidized sites) were summed and used to calculate tryptophan oxidation. Only methionine sulfoxide (M+16) was used to calculate methionine oxidation, as methionine sulfone (M+32) was not observed under these conditions. […]
# [3] = Light exposure stress (high intensity UV) of mAb1/mAb2, LC-MS peptide mapping; format: physicochemical; conditions: 5 mM L-Methionine
# Text: Antibodies were subjected to AAPH stress followed by peptide mapping to identify the CDR and Fc residues that were sensitive to oxidation (Dion et al., manuscript in preparation). Kabat numbering was used to identify variable fragment (Fv) residues, while EU nomenclature (Edelman et al. (1969) Proc Natl Acad Sci USA 63(1):78-85) was used to identify Fc residues. If a residue oxidized by >5% relative to the control, it was deemed sensitive and monitored throughout the course of the experiments. Peptide mapping and analysis information was as reported in Dion et al. (manuscript in preparation). In brief, samples were denatured, reduced, carboxylmethylated and subjected to trypsin digestion. […] The percent oxidation was calculated by dividing the peak area of the oxidized peptides by the summed peak area of the native and oxidized peptides. […]
# Proteins (10 mg/mL) were exposed to light stress with a high intensity UV component (300 kilolux-hours visible light and 50 W·h/m^2 of near UV (320-400 nm) light over a 6-hour period) at various NAT concentrations (0-1 mM NAT) to determine the efficacy of NAT as an antioxidant against photo-oxidation (FIGS. 3A-B). […] Residues that were determined to be insensitive to light oxidation under antioxidant-free conditions remained insensitive to light when NAT was added to the formulation under the tested conditions.
# T1 sequence (P25103 whole entry): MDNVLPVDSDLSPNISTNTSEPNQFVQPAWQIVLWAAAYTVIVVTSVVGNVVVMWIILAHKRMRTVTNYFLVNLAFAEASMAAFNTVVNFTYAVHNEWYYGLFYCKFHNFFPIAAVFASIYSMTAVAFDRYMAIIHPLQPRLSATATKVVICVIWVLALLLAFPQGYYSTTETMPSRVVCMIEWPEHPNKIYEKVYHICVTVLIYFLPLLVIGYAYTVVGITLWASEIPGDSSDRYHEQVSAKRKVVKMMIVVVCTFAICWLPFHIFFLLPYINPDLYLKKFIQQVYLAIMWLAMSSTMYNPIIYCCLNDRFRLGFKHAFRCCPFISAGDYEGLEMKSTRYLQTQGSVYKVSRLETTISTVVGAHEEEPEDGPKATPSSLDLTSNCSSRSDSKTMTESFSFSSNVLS
IC50 for agonist binding to the NK-1 receptor [1],IC50 for antagonist binding to the NK-1 receptor [1],oxidation of CDR and Fv tryptophan residues [2] [%],"impact on oxidation of CDR and Fv residues ([3]; alone or with 0.3 mM NAT, UV light)",UV light-induced Fc methionine oxidation ([3]; mAb1 and mAb2),SMILES
could not be calculated,could not be calculated,< 10,,,"CC(=O)NC(Cc1c[nH]c2ccccc12)C(=O)O (racemic) [NAT, N-acetyl-DL-tryptophan]"
,,,no beneficial impact,improved,"CSCC[C@H](N)C(=O)O [L-Methionine, L-methionine]"
